# Experimental data published in publication PMC12661400, “Oral bioavailable ITRI-148 degrades androgen receptor variants and overcomes antiandrogen resistance in advanced prostate cancer” (Neoplasia (New York, N.Y.), 2025).
# Experiments:
# [1] = Repeated-dose toxicity study: absolute organ weights; format: in vivo, Sprague-Dawley rats; conditions: rats
# Protocol: Repeated-dose toxicity and toxicokinetic studies
# Repeated-dose oral toxicity study and toxicokinetic (TK) profiling was conducted in Sprague-Dawley rats. ITRI-148 was administered once daily using oral gavage at doses of 100, 300, 600, and 1000 mg/kg/day for 7 consecutive days, followed by a 7-day recovery period. Each dose group comprised 3 animals designated for toxicokinetic (TK) analysis and 6 animals for dose-range finding (DRF) evaluation. Clinical observations, body weights, and food consumption were monitored daily throughout the dosing and recovery periods. […]
# All samples were analyzed in duplicate. Hematology and serum clinical chemistry analyses were performed on Day 7 (end of dosing) and Day 14 (end of recovery). At necropsy, organ weights (including heart, liver, kidney, spleen, thymus, and adrenal glands) were recorded, and gross pathological changes were examined. All procedures were conducted in compliance with institutional animal care and use guidelines. […]
# Targeting androgen receptor and the variants by an orally bioavailable
# Proteolysis Targeting Chimeras compound in castration resistant prostate cancer
# CWR22Rv1 cell = CWR22Rv1 cell viability after 3 days of 10 μM compound (linker screen); format: cell-based; conditions: 72 h, CWR22Rv1, 10 μM compound
# VCaP xenografts = assay: Castrated VCaP xenograft study; format: in vivo; conditions: for tumor growth inhibition (TGI): castrated mice
# Text: Immunodifficient male CB-17 SCID mice (CB17/Icr-Prkdc^scid/IcrIcoCrlBltw) and NOD SCID mice (NOD.CB17-Prkdc^scid/NCrCrlBltw) mice at four to six weeks of age were purchased from BioLASCO Taiwan Co., Ilan, Taiwan. All mice were housed in conventional cages in the AAALAC Full Accreditation (2011) in Industrial Technology Research Institute and were allowed to acclimatize and recover from shipping-related stress for one week prior to the study. The health of the mice was monitored by daily observations. Animals were kept in rooms at temperature of 22–26°C with 40–70 % humidity, positive pressure, 60 % air recirculation, ventilation rate 15–20 changes per hour, and a controlled light-dark cycle (12–12 hours). The order and location of each animal cage was randomly assigned to minimize potential confounders. CWR22Rv1 cells (5 × 10^6) were suspended in 100 μL of PBS with 30 % Matrigel and subcutaneously implanted into the right flank of male CB-17 SCID mice. Tumors were measured with calipers, and tumor size was calculated as follows: tumor volume (V) = (L × S^2)/2 (L, longest diameter, mm; S, shortest diameter, mm). When mean tumor volume reached 150–200 mm^3, the mice were randomly assigned into indicated groups (n = 5-6/ group) and the day of initiating treatments was assigned as day 0. VCaP cells (5 × 10⁶) suspended in 50 % Matrigel were subcutaneously implanted into male NOD SCID mice. Once tumors reached approximately 250 mm³, castration surgery was performed. After tumor regression and subsequent regrowth to around 250 mm³, treatment with ITRI-148 was initiated. Oral (PO) gavage was used for the drug administration, including vehicle control and ITRI-148 treatments (7.5 mg/kg, 15 mg/kg, 30 mg/kg, or 60 mg/kg, BID). Tumor size and body weight of the animals were monitored and recorded two to three times per week. Mice were sacrificed when one of the tumor reached over 1000 mm^3 in size. Tumors were collected and immediately subjected to liquid nitrogen freezing and homogenization. The homogenized tumor samples were stored at −80°C for subsequent western blotting analysis. The drug antitumor efficacy was presented as percentages of TGI of each tested animal, calculated as follows: [1 − (final tumor volume ^treated group – initial tumor volume ^treated group) / (final tumor volume ^vehicle group – initial tumor volume ^vehicle group)] × 100. Body weight of each mouse was also compared to that on the first day of treatment (day 0) and expressed as a percentage of day 0 value. All data points were included for calculation and the values are presented as mean ± SEM. Statistical analysis of the differences between two drug and vehicle treated groups was determined by two-tailed Student’s t-test.
# [2] = PO 100 mg/kg/day 7 days, Day 14 (recovery)
# [3] = PO 300 mg/kg/day 7 days, Day 14 (recovery)
# [4] = PO 600 mg/kg/day 7 days, Day 14 (recovery)
# [5] = PO 1000 mg/kg/day 7 days, Day 7
# [6] = PO 1000 mg/kg/day 7 days, Day 14 (recovery)
compound,measurement,setting,value
O=C1CCC(N2C(=O)c3cccc(NCC(=O)N4CCC(N5CCC(C#Cc6ccc(C7CCN(C8=Nn9c(nnc9C(F)(F)F)CC8)CC7)cc6)CC5)CC4)c3C2=O)C(=O)N1 (centres unmarked) [ITRI-148],Absolute organ weight: Heart,"[1]; PO 100 mg/kg/day 7 days, Day 7",1.417 ± 0.443 g
same,Absolute organ weight: Kidney,"[1]; PO 100 mg/kg/day 7 days, Day 7",2.656 ± 0.136 g
same,Absolute organ weight: Liver,"[1]; PO 100 mg/kg/day 7 days, Day 7",13.915 ± 1.565 g
same,Absolute organ weight: Spleen,"[1]; PO 100 mg/kg/day 7 days, Day 7",0.536 ± 0.112 g
same,Absolute organ weight: Thymus,"[1]; PO 100 mg/kg/day 7 days, Day 7",0.419 ± 0.079 g
same,Absolute organ weight: adrenal glands,"[1]; PO 100 mg/kg/day 7 days, Day 7",0.056 ± 0.012 g
same,Absolute organ weight: Heart,[1]; [2],1.139 ± 0.079 g
same,Absolute organ weight: Kidney,[1]; [2],2.65 ± 0.021 g
same,Absolute organ weight: Liver,[1]; [2],11.06 ± 0.639 g
same,Absolute organ weight: Spleen,[1]; [2],0.538 ± 0.05 g
same,Absolute organ weight: Thymus,[1]; [2],0.319 ± 0.039 g
same,Absolute organ weight: adrenal glands,[1]; [2],0.084 ± 0.059 g
same,Absolute organ weight: Heart,"[1]; PO 300 mg/kg/day 7 days, Day 7",1.369 ± 0.173 g
same,Absolute organ weight: Kidney,"[1]; PO 300 mg/kg/day 7 days, Day 7",2.966 ± 0.426 g
same,Absolute organ weight: Liver,"[1]; PO 300 mg/kg/day 7 days, Day 7",13.69 ± 1.088 g
same,Absolute organ weight: Spleen,"[1]; PO 300 mg/kg/day 7 days, Day 7",0.558 ± 0.035 g
same,Absolute organ weight: Thymus,"[1]; PO 300 mg/kg/day 7 days, Day 7",0.377 ± 0.079 g
same,Absolute organ weight: adrenal glands,"[1]; PO 300 mg/kg/day 7 days, Day 7",0.058 ± 0.022 g
same,Absolute organ weight: Heart,[1]; [3],1.252 ± 0.229 g
same,Absolute organ weight: Kidney,[1]; [3],2.748 ± 0.366 g
same,Absolute organ weight: Liver,[1]; [3],12.08 ± 0.721 g
same,Absolute organ weight: Spleen,[1]; [3],0.629 ± 0.088 g
same,Absolute organ weight: Thymus,[1]; [3],0.314 ± 0.042 g
same,Absolute organ weight: adrenal glands,[1]; [3],0.06 ± 0.016 g
same,Absolute organ weight: Heart,"[1]; PO 600 mg/kg/day 7 days, Day 7",1.269 ± 0.209 g
same,Absolute organ weight: Kidney,"[1]; PO 600 mg/kg/day 7 days, Day 7",2.661 ± 0.129 g
same,Absolute organ weight: Liver,"[1]; PO 600 mg/kg/day 7 days, Day 7",13.396 ± 2.201 g
same,Absolute organ weight: Spleen,"[1]; PO 600 mg/kg/day 7 days, Day 7",0.509 ± 0.093 g
same,Absolute organ weight: Thymus,"[1]; PO 600 mg/kg/day 7 days, Day 7",0.319 ± 0.054 g
same,Absolute organ weight: adrenal glands,"[1]; PO 600 mg/kg/day 7 days, Day 7",0.058 ± 0.001 g
same,Absolute organ weight: Heart,[1]; [4],1.242 ± 0.08 g
same,Absolute organ weight: Kidney,[1]; [4],2.759 ± 0.179 g
same,Absolute organ weight: Liver,[1]; [4],12.382 ± 0.877 g
same,Absolute organ weight: Spleen,[1]; [4],0.594 ± 0.066 g
same,Absolute organ weight: Thymus,[1]; [4],0.394 ± 0.041 g
same,Absolute organ weight: adrenal glands,[1]; [4],0.07 ± 0.027 g
same,Absolute organ weight: Heart,[1]; [5],1.259 ± 0.118 g
same,Absolute organ weight: Kidney,[1]; [5],3.022 ± 0.127 g
same,Absolute organ weight: Liver,[1]; [5],13.349 ± 1.256 g
same,Absolute organ weight: Spleen,[1]; [5],0.388 ± 0.035 g
same,Absolute organ weight: Thymus,[1]; [5],0.121 ± 0.021 g
same,Absolute organ weight: adrenal glands,[1]; [5],0.068 ± 0.012 g
same,Absolute organ weight: Heart,[1]; [6],1.306 ± 0.066 g
same,Absolute organ weight: Kidney,[1]; [6],2.763 ± 0.229 g
same,Absolute organ weight: Liver,[1]; [6],11.072 ± 0.774 g
same,Absolute organ weight: Spleen,[1]; [6],0.506 ± 0.023 g
same,Absolute organ weight: Thymus,[1]; [6],0.355 ± 0.119 g
same,Absolute organ weight: adrenal glands,[1]; [6],0.062 ± 0.009 g
same,viability at 10 µM,CWR22Rv1 cell,1.71%
same,toxicity reflected by weight-loss of the animals,VCaP xenografts; PO 7.5-30 mg/kg BID,No toxicity reflected by weight-loss of the animals was observed
same,tumor growth inhibition (TGI),VCaP xenografts; PO 7.5 mg/kg BID,49.06%
same,tumor growth inhibition (TGI),VCaP xenografts; PO 15 mg/kg BID,95.08%
same,tumor growth inhibition (TGI),"VCaP xenografts; PO 30 mg/kg BID, average",147.07%
